Test results taken from the supplement of paper PMC8612539.
≈ marks a conversion by molar mass, not a printed value.

Key:
[1] = system: Mannheimia haemolytica; assay: minimum inhibitory concentration (MIC)
Experimental: (§1)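 Broth microdilution MIC (Sensititre BOPO7F bovine plate, CLSI methods) of 19 antimicrobials against field isolates of P. multocida, M. haemolytica, H. somni (deep nasopharyngeal swabs) and E. coli, Enterococcus spp. (rectal swabs) from weaned dairy heifers. Incubation 16-24 h at 35 C. MIC is the lowest concentration preventing visible growth. Values with <= or > lie at the tested range limits. Trimethoprim-sulfamethoxazole is given as the trimethoprim component of a 1:19 mixture.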

[2] = system: Enterococcus spp.; assay: minimum inhibitory concentration (MIC)
Experimental: as §1

CCCN1C[C@H](C)[C@@H](O)[C@](C)(O)[C@@H](CC)OC(=O)[C@H](C)[C@@H](O[C@H]2C[C@@](C)(OC)[C@@H](O)[C@H](C)O2)[C@H](C)[C@@H](O[C@@H]2O[C@H](C)C[C@H](N(C)C)[C@H]2O)[C@](C)(O)C[C@H]1C [Gamithromycin]
minimum inhibitory concentration [µg/mL]
Conditions | [1] | [2]
isolate (source animal id): 2 | – | ≤ 1
isolate (source animal id): 8 | ≤ 1 | –
isolate (source animal id): 13 | ≤ 1 | –
isolate (source animal id): 18 | ≤ 1 | –
isolate (source animal id): 21 | ≤ 1 | –
isolate (source animal id): 25 | 4 (≈ 5.15 µM) | –
isolate (source animal id): 27 | 4 (≈ 5.15 µM) | –
isolate (source animal id): 28 | 2 (≈ 2.57 µM) | –
isolate (source animal id): 30 | ≤ 1 | –
isolate (source animal id): 31 | 2 (≈ 2.57 µM) | –
isolate (source animal id): 32 | ≤ 1 | –
isolate (source animal id): 34 | ≤ 1 | –
isolate (source animal id): 35 | – | > 8
isolate (source animal id): 36 | 4 (≈ 5.15 µM) | –
isolate (source animal id): 37 | 4 (≈ 5.15 µM) | –
isolate (source animal id): 40 | ≤ 1 | –
isolate (source animal id): 41 | ≤ 1 | –
isolate (source animal id): 42 | – | ≤ 1
isolate (source animal id): 43 | ≤ 1 | –
isolate (source animal id): 44 | – | 2 (≈ 2.57 µM)
isolate (source animal id): 46 | 4 (≈ 5.15 µM) | –
isolate (source animal id): 49 | 2 (≈ 2.57 µM) | –
isolate (source animal id): 50 | 4 (≈ 5.15 µM) | –
isolate (source animal id): 51 | ≤ 1 | –
isolate (source animal id): 52 | ≤ 1 | –
isolate (source animal id): 53 | ≤ 1 | –
isolate (source animal id): 55 | ≤ 1 | –
isolate (source animal id): 56 | ≤ 1 | –
isolate (source animal id): 57 | > 8 | –
isolate (source animal id): 79 | – | 2 (≈ 2.57 µM)
isolate (source animal id): 88 | – | ≤ 1
isolate (source animal id): 91 | – | ≤ 1
isolate (source animal id): 92 | – | 2 (≈ 2.57 µM)
isolate (source animal id): 100 | 2 (≈ 2.57 µM) | –
isolate (source animal id): 103 | 4 (≈ 5.15 µM) | –
isolate (source animal id): 107 | 2 (≈ 2.57 µM) | –
isolate (source animal id): 108 | 2 (≈ 2.57 µM) | –
isolate (source animal id): 111 | – | ≤ 1
isolate (source animal id): 112 | > 8 | –
isolate (source animal id): 113 | > 8 | –
isolate (source animal id): 121 | 4 (≈ 5.15 µM) | –
isolate (source animal id): 122 | 8 (≈ 10.3 µM) | > 8
isolate (source animal id): 123 | > 8 | ≤ 1
isolate (source animal id): 126 | > 8 | –
isolate (source animal id): 133 | > 8 | ≤ 1
isolate (source animal id): 135 | > 8 | –
isolate (source animal id): 138 | > 8 | –
isolate (source animal id): 141 | > 8 | –
isolate (source animal id): 142 | > 8 | –
isolate (source animal id): 145 | 2 (≈ 2.57 µM) | –
isolate (source animal id): 149 | 2 (≈ 2.57 µM) | –
isolate (source animal id): 151 | 2 (≈ 2.57 µM) | –
isolate (source animal id): 152 | 4 (≈ 5.15 µM) | –
isolate (source animal id): 154 | ≤ 1 | –
isolate (source animal id): 158 | – | > 8
isolate (source animal id): 159 | > 8 | –
isolate (source animal id): 162 | > 8 | –
isolate (source animal id): 168 | – | ≤ 1
isolate (source animal id): 169 | – | ≤ 1
isolate (source animal id): 170 | 2 (≈ 2.57 µM) | –
isolate (source animal id): 171 | ≤ 1 | ≤ 1
isolate (source animal id): 172 | 2 (≈ 2.57 µM) | –
isolate (source animal id): 173 | 2 (≈ 2.57 µM) | –
isolate (source animal id): 175 | – | > 8
isolate (source animal id): 177 | – | ≤ 1
isolate (source animal id): 179 | ≤ 1 | –
isolate (source animal id): 180 | ≤ 1 | –
isolate (source animal id): 181 | – | ≤ 1
isolate (source animal id): 182 | – | ≤ 1
isolate (source animal id): 183 | ≤ 1 | 2 (≈ 2.57 µM)
isolate (source animal id): 186 | ≤ 1 | –
isolate (source animal id): 187 | 2 (≈ 2.57 µM) | ≤ 1
isolate (source animal id): 188 | ≤ 1 | –
isolate (source animal id): 190 | ≤ 1 | ≤ 1
isolate (source animal id): 191 | 2 (≈ 2.57 µM) | –
isolate (source animal id): 192 | ≤ 1 | –
isolate (source animal id): 194 | – | ≤ 1
isolate (source animal id): 195 | – | ≤ 1
isolate (source animal id): 197 | – | ≤ 1
isolate (source animal id): 201 | 2 (≈ 2.57 µM) | –
isolate (source animal id): 202 | 2 (≈ 2.57 µM) | –
isolate (source animal id): 209 | 2 (≈ 2.57 µM) | –
isolate (source animal id): 211 | 2 (≈ 2.57 µM) | ≤ 1
isolate (source animal id): 214 | – | 4 (≈ 5.15 µM)
isolate (source animal id): 220 | 2 (≈ 2.57 µM) | –
isolate (source animal id): 221 | ≤ 1 | –
isolate (source animal id): 222 | – | ≤ 1
isolate (source animal id): 223 | 2 (≈ 2.57 µM) | ≤ 1
isolate (source animal id): 228 | – | 8 (≈ 10.3 µM)
isolate (source animal id): 230 | – | 8 (≈ 10.3 µM)
isolate (source animal id): 233 | 2 (≈ 2.57 µM) | –
isolate (source animal id): 235 | – | > 8
isolate (source animal id): 236 | – | ≤ 1
isolate (source animal id): 237 | 4 (≈ 5.15 µM) | –
isolate (source animal id): 239 | – | 4 (≈ 5.15 µM)
isolate (source animal id): 241 | 4 (≈ 5.15 µM) | > 8
isolate (source animal id): 244 | – | ≤ 1
isolate (source animal id): 246 | – | ≤ 1
isolate (source animal id): 247 | – | > 8
isolate (source animal id): 250 | – | ≤ 1
isolate (source animal id): 252 | 8 (≈ 10.3 µM) | > 8
isolate (source animal id): 253 | 8 (≈ 10.3 µM) | –
isolate (source animal id): 259 | > 8 | –
isolate (source animal id): 260 | 8 (≈ 10.3 µM) | –
isolate (source animal id): 262 | 4 (≈ 5.15 µM) | –
isolate (source animal id): 268 | – | > 8
isolate (source animal id): 282 | > 8 | ≤ 1
isolate (source animal id): 285 | – | > 8
isolate (source animal id): 287 | 8 (≈ 10.3 µM) | –
isolate (source animal id): 288 | ≤ 1 | –
isolate (source animal id): 289 | – | ≤ 1
isolate (source animal id): 290 | – | ≤ 1
isolate (source animal id): 291 | ≤ 1 | –
isolate (source animal id): 293 | 8 (≈ 10.3 µM) | –
isolate (source animal id): 296 | – | ≤ 1
isolate (source animal id): 298 | > 8 | ≤ 1
isolate (source animal id): 299 | > 8 | –
isolate (source animal id): 300 | ≤ 1 | –
isolate (source animal id): 301 | – | ≤ 1
isolate (source animal id): 302 | > 8 | –
isolate (source animal id): 304 | > 8 | –
isolate (source animal id): 306 | ≤ 1 | –
isolate (source animal id): 308 | ≤ 1 | –
isolate (source animal id): 309 | ≤ 1 | –
isolate (source animal id): 310 | – | > 8
isolate (source animal id): 313 | > 8 | –
isolate (source animal id): 318 | 8 (≈ 10.3 µM) | –
isolate (source animal id): 320 | ≤ 1 | ≤ 1
isolate (source animal id): 321 | > 8 | –
isolate (source animal id): 323 | > 8 | –
isolate (source animal id): 324 | 8 (≈ 10.3 µM) | –
isolate (source animal id): 326 | > 8 | –
isolate (source animal id): 328 | > 8 | –
isolate (source animal id): 329 | > 8 | –
isolate (source animal id): 331 | – | ≤ 1
isolate (source animal id): 333 | > 8 | ≤ 1
isolate (source animal id): 335 | 8 (≈ 10.3 µM) | –
isolate (source animal id): 338 | 8 (≈ 10.3 µM) | –
isolate (source animal id): 341 | – | > 8
